SMILES strings stand for the structures.

The subject of one experiment is HCV replicon. The experiment in a line: HCV replicon replication assay (NPTII ELISA). It counts as cell-based, Hepatitis C virus (Huh-7 cells). The settings on record: Hepatitis C virus, Huh-7, 72 h, inhibition of HCV replicon replication in Huh-7 HCV replicon-containing cells, three days incubation, NPT level by ELISA. In short, it runs like this:
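Huh-7 cells carrying a Bartenschlager NPTII (neo) HCV replicon, treated 3 days at 37 °C with compound, generally 6 concentrations from 10 to 0.03 micromolar, in equal DMSO across wells. NPTII level, proportional to replication, read by capture ELISA on methanol:acetone-fixed cells; interferon alpha positive control; toxicity scored visually or by MTS.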
As usually defined, the EC50 is the concentration at which the effect is half-maximal. In turn, `CCCCCCCCOc1ccc(N(C(=O)c2cc(C)on2)c2nc(-c3nc4ccccc4s3)cs2)cc1` [Compound 90] had a concentration for a half-maximal effect (EC50) of 1000 to 10000 nM.
Same read-out and setting: for `CCCCCN(C)c1ccc(N(C(N)=O)c2nc(-c3ccc(F)c(F)c3)cs2)cc1C(F)(F)F` [Compound 107] the value was less than 1000 nM.

The experiment is the same for the next values; noted with them: Hepatitis C virus, Huh-7, 72 h, inhibition of HCV replicon replication in Huh-7 HCV replicon-containing cells, three days incubation, NPT level by ELISA; read-out: EC50.
`CCCCCOc1ccc(N(C(=O)Nc2ccccc2)c2nc(-c3cccnc3)cs2)cc1C(F)(F)F` [Compound 81, 1-(4-(pentyloxy)-3-(trifluoromethyl)phenyl)-3-phenyl-1-(4-(pyridin-3-yl)thiazol-2-yl)urea]: the EC50 is less than 1000 nM.
Take `CCCCCCCCOc1ccc(N(CC(N)=O)c2nc(-c3ccc(OCC(N)=O)cc3)cs2)cc1` [Compound 82, 2-((4-(4-(2-amino-2-oxoethoxy)phenyl)thiazol-2-yl)(4-(octyloxy)phenyl)amino)acetamide]: the EC50 is greater than 10000 nM.
On to `NC(=O)N(c1ccc(F)c(C(F)(F)F)c1)c1nc(-c2cccnc2)cs1` [Compound 83, 1-(4-fluoro-3-(trifluoromethyl)phenyl)-1-(4-(pyridin-3-yl)thiazol-2-yl)urea], for which the EC50 was less than 1000 nM.
As for `COc1ccc(N(C(N)=O)c2nc(-c3cccnc3)cs2)cc1C(F)(F)F` [Compound 84, 1-(4-methoxy-3-(trifluoromethyl)phenyl)-1-(4-(pyridin-3-yl)thiazol-2-yl)urea], the 50% effective concentration (EC50) is less than 1000 nM.
On to `COc1ccc(N(C(N)=O)c2nc(-c3ccc(F)cc3)cs2)cc1C(F)(F)F` [Compound 85, 1-(4-(4-fluorophenyl)thiazol-2-yl)-1-(4-methoxy-3-(trifluoromethyl)phenyl)urea], for which the concentration giving a half-maximal response (EC50) is less than 1000 nM.
Still for that read-out and setting: the value for `CCCCCOc1ccc(N(C(N)=O)c2nc(-c3ccc(F)cc3F)cs2)cc1C(F)(F)F` [Compound 86, 1-(4-(2,4-difluorophenyl)thiazol-2-yl)-1-(4-(pentyloxy)-3-(trifluoromethyl)phenyl)urea] was less than 1000 nM; that for `CCCCCOc1ccc(N(C(N)=O)c2nc(-c3cccnc3)cs2)cc1F` [Compound 87, 1-(3-fluoro-4-(pentyloxy)phenyl)-1-(4-(pyridin-3-yl)thiazol-2-yl)urea] was less than 1000 nM; that for `CCCCCCCCOc1ccc(N(C(=O)NC2CCCCC2)c2nc(-c3cccnc3)cs2)cc1` [Compound 88, 3-cyclohexyl-1-(4-(octyloxy)phenyl)-1-(4-(pyridin-3-yl)thiazol-2-yl)urea] was 1000 to 10000 nM.
On the same count and under the same terms, for `CCCCCCCCOc1ccc(N(C(=O)c2cc(C)on2)c2nc(-c3ccc(Cl)s3)cs2)cc1` [Compound 89, N-(4-(5-chlorothiophen-2-yl)thiazol-2-yl)-5-methyl-N-(4-(octyloxy)phenyl)isoxazole-3-carboxamide] the value was less than 1000 nM.
Turning to `CCCCCCCOc1ccc(N(C(=O)c2cc(C)on2)c2nc(-c3ccc(Cl)s3)cs2)cc1` [Compound 91, N-(4-(5-chlorothiophen-2-yl)thiazol-2-yl)-N-(4-(heptyloxy)phenyl)-5-methylisoxazole-3-carboxamide], the half-maximal effective concentration (EC50) was less than 1000 nM.
Consider `CCCCCCCOc1ccc(N(C(=O)c2cc(C)on2)c2nc(-c3nc4ccccc4s3)cs2)cc1` [Compound 92, N-(4-(benzo[d]thiazol-2-yl)thiazol-2-yl)-N-(4-(heptyloxy)phenyl)-5-methylisoxazole-3-carboxamide], for which the EC50 lay in the range of 1000 to 10000 nM.
Still for that read-out and setting: the value for `CCCCCOc1ccc(N(C(=O)c2cc(C)on2)c2nc(-c3nc4ccccc4s3)cs2)cc1C(F)(F)F` [Compound 94, N-(4-(benzo[d]thiazol-2-yl)thiazol-2-yl)-5-methyl-N-(4-(pentyloxy)-3-(trifluoromethyl)phenyl)isoxazole-3-carboxamide] was less than 1000 nM.
On the same count and under the same terms, the value for `CCCCCCCOc1ccc(N(C(=O)C2CCCCC2)c2nc(-c3ccccn3)cs2)cc1` [Compound 95, N-(4-(heptyloxy)phenyl)-N-(4-(pyridin-2-yl)thiazol-2-yl)cyclohexanecarboxamide] was 1000 to 10000 nM; that for `CCCCCOc1ccc(N(C(=O)C2CCCCC2)c2nc(-c3ccccn3)cs2)cc1C(F)(F)F` [Compound 96, N-(4-(pentyloxy)-3-(trifluoromethyl)phenyl)-N-(4-(pyridin-2-yl)thiazol-2-yl)cyclohexanecarboxamide] was less than 1000 nM; that for `CCCCCCCCOc1ccc(N(C(=O)C(=O)OC)c2nc(-c3ccc(Cl)s3)cs2)cc1` [Compound 97, methyl 2-((4-(5-chlorothiophen-2-yl)thiazol-2-yl)(4-(octyloxy)phenyl)amino)-2-oxoacetate] was less than 1000 nM.
Same read-out and setting: the value for `CCCCCCCOc1ccc(N(C(=O)C(=O)OC)c2nc(-c3ccc(Cl)s3)cs2)cc1` [Compound 98, methyl 2-((4-(5-chlorothiophen-2-yl)thiazol-2-yl)(4-(heptyloxy)phenyl)amino)-2-oxoacetate] was less than 1000 nM; that for `CCCCCOc1ccc(N(C(=O)C(=O)OC)c2nc(-c3ccc(Cl)s3)cs2)cc1C(F)(F)F` [Compound 99, methyl 2-((4-(5-chlorothiophen-2-yl)thiazol-2-yl)(4-(pentyloxy)-3-(trifluoromethyl)phenyl)amino)-2-oxoacetate] was less than 1000 nM; that for `CCCCCOc1ccc(N(C(=O)C(=O)OC)c2nc(-c3ccc4[nH]c(=O)oc4c3)cs2)cc1C(F)(F)F` [Compound 100, methyl 2-oxo-2-((4-(2-oxo-2,3-dihydrobenzo[d]oxazol-6-yl)thiazol-2-yl)(4-(pentyloxy)-3-(trifluoromethyl)phenyl)amino)acetate] was less than 1000 nM.
Consider `CCCCCCCCOc1ccc(N(C(=O)c2cccnc2)c2nc(-c3nc4ccccc4s3)cs2)cc1` [Compound 101, N-(4-(benzo[d]thiazol-2-yl)thiazol-2-yl)-N-(4-(octyloxy)phenyl)nicotinamide], for which the EC50 lay within 1000 to 10000 nM.
Same read-out and setting: the value for `CCCCCOc1ccc(N(C(=O)c2cccnc2)c2nc(-c3nc4ccccc4s3)cs2)cc1C(F)(F)F` [Compound 102, N-(4-(benzo[d]thiazol-2-yl)thiazol-2-yl)-N-(4-(pentyloxy)-3-(trifluoromethyl)phenyl)nicotinamide] was less than 1000 nM; that for `CCCCOc1ccc(N(C(N)=O)c2nc(-c3ccccn3)cs2)cc1C(F)(F)F` [Compound 103, 1-(4-butoxy-3-(trifluoromethyl)phenyl)-1-(4-(pyridin-2-yl)thiazol-2-yl)urea] was less than 1000 nM.
Same read-out and setting: for `CCCCCN(C)c1ccc(N(C(N)=O)c2nc(-c3ccc4c(c3)NC(=O)CO4)cs2)cc1C(F)(F)F` [Compound 105, 1-(4-(methyl(pentyl)amino)-3-(trifluoromethyl)phenyl)-1-(4-(3-oxo-3,4-dihydro-2H-benzo[b][1,4]oxazin-6-yl)thiazol-2-yl)urea] the value was 1000 to 10000 nM; for `CCCCCN(C)c1ccc(N(C(N)=O)c2nc(-c3ccccn3)cs2)cc1C(F)(F)F` [Compound 106, 1-(4-(methyl(pentyl)amino)-3-(trifluoromethyl)phenyl)-1-(4-(pyridin-2-yl)thiazol-2-yl)urea], less than 1000 nM.
Regarding `CCCCCOc1ccc(N(C(N)=O)c2nc(-c3ccc(O)c(C(N)=O)c3)cs2)cc1F` [Compound 109, 5-(2-(1-(3-fluoro-4-(pentyloxy)phenyl)ureido)thiazol-4-yl)-2-hydroxybenzamide], the EC50 lay within 1000 to 10000 nM.
With `CCCCCOc1ccc(N(C(N)=O)c2nc(-c3ccc4c(c3)NC(=O)CO4)cs2)cc1F` [Compound 110, 1-(3-fluoro-4-(pentyloxy)phenyl)-1-(4-(3-oxo-3,4-dihydro-2H-benzo[b][1,4]oxazin-6-yl)thiazol-2-yl)urea], the 50% effective concentration (EC50) is greater than 10000 nM.
Same read-out and setting: the value for `CCCCCOc1ccc(N(C(N)=O)c2nc(-c3ccc(F)cc3)cs2)cc1F` [Compound 111, 1-(3-fluoro-4-(pentyloxy)phenyl)-1-(4-(4-fluorophenyl)thiazol-2-yl)urea] was less than 1000 nM; that for `CCCCCOc1ccc(N(C(N)=O)c2nc(-c3ccccn3)cs2)cc1F` [Compound 112, 1-(3-fluoro-4-(pentyloxy)phenyl)-1-(4-(pyridin-2-yl)thiazol-2-yl)urea] was 1000 to 10000 nM; that for `CCCCCOc1ccc(N(C(N)=O)c2nc(-c3ccc(F)c(F)c3)cs2)cc1F` [Compound 113, 1-(4-(3,4-difluorophenyl)thiazol-2-yl)-1-(3-fluoro-4-(pentyloxy)phenyl)urea] was 1000 to 10000 nM.
As to `Cc1ccc(-c2csc(N(C(N)=O)c3ccc(OCC4CCCCC4)c(F)c3)n2)cn1` [Compound 114, 1-(4-(cyclohexylmethoxy)-3-fluorophenyl)-1-(4-(6-methylpyridin-3-yl)thiazol-2-yl)urea], the concentration for a half-maximal effect (EC50) was 1000 to 10000 nM.
For `NC(=O)c1cc(-c2csc(N(C(N)=O)c3ccc(OCC4CCCCC4)c(F)c3)n2)ccc1O` [Compound 115, 5-(2-(1-(4-(cyclohexylmethoxy)-3-fluorophenyl)ureido)thiazol-4-yl)-2-hydroxybenzamide], the concentration giving a half-maximal response (EC50) lay within 1000 to 10000 nM.
The same measure, in the same setting: for `NC(=O)N(c1ccc(OCC2CCCCC2)c(F)c1)c1nc(-c2ccc3c(c2)NC(=O)CO3)cs1` [Compound 116, 1-(4-(cyclohexylmethoxy)-3-fluorophenyl)-1-(4-(3-oxo-3,4-dihydro-2H-benzo[b][1,4]oxazin-6-yl)thiazol-2-yl)urea] the value was greater than 10000 nM; for `NC(=O)N(c1ccc(OCC2CCCCC2)c(F)c1)c1nc(-c2ccc(F)cc2)cs1` [Compound 117, 1-(4-(cyclohexylmethoxy)-3-fluorophenyl)-1-(4-(4-fluorophenyl)thiazol-2-yl)urea], 1000 to 10000 nM; for `NC(=O)N(c1ccc(OCC2CCCCC2)c(F)c1)c1nc(-c2ccccn2)cs1` [Compound 118, 1-(4-(cyclohexylmethoxy)-3-fluorophenyl)-1-(4-(pyridin-2-yl)thiazol-2-yl)urea], 1000 to 10000 nM.
On the same count and under the same terms, for `NC(=O)N(c1ccc(OCC2CCCCC2)c(F)c1)c1nc(-c2cccnc2)cs1` [Compound 119, 1-(4-(cyclohexylmethoxy)-3-fluorophenyl)-1-(4-(pyridin-3-yl)thiazol-2-yl)urea] the value was less than 1000 nM.

The record behind these values is patent US20070213301A1 (ACHILLION PHARMACEUTICALS, INC., priority 2006, published 2007).
